Results reported in patent US20080076824A1, “Compounds That Inhibit Replication Of Human Immunodeficiency Virus” (priority 2004, published 2008).
Several values for one entry are separate records, joined by “and”; a condition that tells them apart may be missing. Equal entries are not always repeated. Structures can show the parent of a compound that is named as a salt.

Experiment: Microdose study of 14C-AlphaHGA in healthy volunteers, plasma pharmacokinetics (AMS)
Assay type: in vivo, human
Experimental: In this example, the pharmacokinetics (PK) and oral bioavailability of AlphaHGA in adult healthy volunteers following a single ‘microdose’ in a sequence-randomized, cross-over study design (two periods 7 days apart) was determined. Clinical experiments were conducted with low-level radiolabelled (^14C) AlphaHGA administered intravenously (IV) orally (PO) with serial blood and urine samples were collected for concentration analysis utilizing accelerator mass spectrometry (AMS).
Accordingly, eight subjects were enrolled into a single dose cross-over study. The subjects were randomly assigned to one of two administration sequences. Subjects that were assigned to sequence 1 received AlphaHGA as an oral preparation first (Period 1) followed by the intravenous (IV) preparation 1 week later (Period 2). Subjects assigned to sequence 2 received AlphaHGA as an intravenous preparation first followed by the oral preparation 1 week later. Four subjects were assigned to sequence 1 and four subjects were assigned to sequence 2.
For both oral and IV doses subjects were administered 100 nCi (3.7 Kbq) of alphaHGA, which was determined to contain 1.602888×10ˆ6 fmol of ^14C. The specific activity of each dose was 46.619 MBq/mol (or 1.260 mCi/mol). A stock blend of ^14C-labelled alphaHGA was produced prior to the first study period. The actual formulations used for dosing were prepared on the morning prior to each study period. The infusion was a single bolus injection with both the infusion and flush were completed in less than 30 seconds.
Blood (5 ml) was collected following the administration of AlphaHGA orally or as an IV bolus at the following times: pre-dose (T=0) and 15, 30, 45, 60 minutes, and at 2, 3, 4, 6, 8, 10, 12, 16, 24 hours post-dose. All of the 224 scheduled blood samples were obtained. Blood specimens were drawn by intravenous in-dwelling catheter into 2×10 mL EDTA containing Vacutainer tubes and RBC's separated by centrifugation.
Plasma specimens (30 μL) were analyzed directly via the combustive procedure without further chemical manipulation. For the purposes of calculating ^14C concentration per volume of plasma, a general carbon content of 45% (dry mass) was applied. The urine was mixed with equal volumes (0.5 mL) of a sucrose carbon diluent solution (200 g/L) and mixed by inversion in a disposable polypropylene centrifuge tube. A 20-μL sample was graphitized for AMS analysis according to standard procedures. The mass fraction of the urine represented in the measured sample was inverted and multipled by the ^14C contents above background derived from the AMS measurement to calculate the ^14C content in the total urine void. A density value of 1 g/mL for urine was assumed to calculate its volume from the recorded masses.
Pharmacokinetic parameters were estimated by noncompartmental analysis employing the PK software WinNonlin version 4.1 (Pharsight Corporation, Palo Alto, Calif.). Statistical analyses were performed using either WinNonlin 4.1 or SPlus 2000 (Insightful Inc, Seattle, Wash.). All parameter calculations are reported from observed values and not from predicted values. However, observed and predicted values were very close and parameter estimates from both approaches were nearly equal.
. Values for the following PK parameters were estimated from plasma alphaHGA concentrations:
Maximum observed concentration (Cmax) and the time to reach Cmax (Tmax), the last quantified concentration (Clast), the time to Clast (Tlast), and time to the first quantified concentration (Tfirst) came from the experimentally observed values.
Terminal elimination rate constant (λz), was estimated from log-linear regression analysis of the apparent terminal phase of the plasma concentration-time profile. Weighting for the regression was 1/Y^2. The associated plasma half-life (T½) was calculated as T½=ln 2/λz. The point employed for estimating λz, were selected by the WinNonlin default curve stripping algorithm. […]

[1] = plasma, route iv, individual subjects 1-8, period 1 or 2
[2] = plasma, route iv, individual subjects 1-8, period 1 or 2, hydrochloride
[3] = plasma, route po, individual subjects 1-8, period 1 or 2, hydrochloride

NC(=O)C(N)O (stereo not drawn) [AlphaHGA, α-Hydroxy-glycinamide hydrochloride]
AUC % Extrap (all subjects): less than 20%
terminal elimination half-life in the plasma (following both routes of administration): approximately 10 hours
absorption (oral administration): rapidly and completely absorbed after oral administration
AUC % Extrap (plasma, Period 1, Max): 17.43%
AUCTmax (plasma, Period 1, Max): 0.02396 nM·h
AUCinf (plasma, Period 1, Max): 0.43166 nM·h
AUClast (plasma, Period 1, Max): 0.39184 nM·h
Az (plasma, Period 1, Max): 0.084 h⁻¹
Clast (plasma, Period 1, Max): 0.00462 nM
Cmax (plasma, Period 1, Max): 0.0668 nM
T ½ (plasma, Period 1, Max): 10.32 h
Tmax (plasma, Period 1, Max): 1.00 h
AUC % Extrap (plasma, Period 1, Mean): 13.16%
AUCTmax (plasma, Period 1, Mean): 0.01354 nM·h
AUCinf (plasma, Period 1, Mean): 0.35555 nM·h
AUClast (plasma, Period 1, Mean): 0.30901 nM·h
Az (plasma, Period 1, Mean): 0.074 h⁻¹
Clast (plasma, Period 1, Mean): 0.0034 nM
Cmax (plasma, Period 1, Mean): 0.0477 nM
T ½ (plasma, Period 1, Mean): 9.45 h
Tmax (plasma, Period 1, Mean): 0.50 h
AUC % Extrap (plasma, Period 1, Min): 9.23%
AUCTmax (plasma, Period 1, Min): 0.00422 nM·h
AUCinf (plasma, Period 1, Min): 0.27962 nM·h
AUClast (plasma, Period 1, Min): 0.24083 nM·h
Az (plasma, Period 1, Min): 0.067 h⁻¹
Clast (plasma, Period 1, Min): 0.00267 nM
Cmax (plasma, Period 1, Min): 0.0337 nM
T ½ (plasma, Period 1, Min): 8.26 h
Tmax (plasma, Period 1, Min): 0.25 h
AUC % Extrap (plasma, Period 2, Max): 19.51%
AUCTmax (plasma, Period 2, Max): 0.04903 nM·h
AUCinf (plasma, Period 2, Max): 0.4907 nM·h
AUClast (plasma, Period 2, Max): 0.46442 nM·h
Az (plasma, Period 2, Max): 0.118 h⁻¹
Clast (plasma, Period 2, Max): 0.00459 nM
Cmax (plasma, Period 2, Max): 0.076 nM
T ½ (plasma, Period 2, Max): 12.80 h
Tmax (plasma, Period 2, Max): 2.00 h
AUC % Extrap (plasma, Period 2, Mean): 13.94%
AUCTmax (plasma, Period 2, Mean): 0.01698 nM·h
AUCinf (plasma, Period 2, Mean): 0.3847 nM·h
AUClast (plasma, Period 2, Mean): 0.33218 nM·h
Az (plasma, Period 2, Mean): 0.073 h⁻¹
Clast (plasma, Period 2, Mean): 0.00356 nM
Cmax (plasma, Period 2, Mean): 0.0574 nM
T ½ (plasma, Period 2, Mean): 10.06 h
Tmax (plasma, Period 2, Mean): 0.59 h
AUC % Extrap (plasma, Period 2, Min): 5.36%
AUCTmax (plasma, Period 2, Min): 0.00615 nM·h
AUCinf (plasma, Period 2, Min): 0.32388 nM·h
AUClast (plasma, Period 2, Min): 0.27076 nM·h
Az (plasma, Period 2, Min): 0.054 h⁻¹
Clast (plasma, Period 2, Min): 0.00292 nM
Cmax (plasma, Period 2, Min): 0.0392 nM
T ½ (plasma, Period 2, Min): 5.88 h
Tmax (plasma, Period 2, Min): 0.25 h
AUC % Extrap (plasma, Route iv, Max): 19.51%
AUCTmax (plasma, Route iv, Max): 0.02396 nM·h
AUCinf (plasma, Route iv, Max): 0.43166 nM·h
AUClast (plasma, Route iv, Max): 0.39184 nM·h
Az (plasma, Route iv, Max): 0.084 h⁻¹
Clast (plasma, Route iv, Max): 0.00462 nM
Cmax (plasma, Route iv, Max): 0.0722 nM
T ½ (plasma, Route iv, Max): 12.80 h
Tmax (plasma, Route iv, Max): 0.50 h
AUC % Extrap (plasma, Route iv, Mean): 14.04%
AUCTmax (plasma, Route iv, Mean): 0.00876 nM·h
AUCinf (plasma, Route iv, Mean): 0.36141 nM·h
AUClast (plasma, Route iv, Mean): 0.31056 nM·h
Az (plasma, Route iv, Mean): 0.070 h⁻¹
Clast (plasma, Route iv, Mean): 0.00343 nM
Cmax (plasma, Route iv, Mean): 0.0544 nM
T ½ (plasma, Route iv, Mean): 10.11 h
Tmax (plasma, Route iv, Mean): 0.28 h
AUC % Extrap (plasma, Route iv, Min): 9.23%
AUCTmax (plasma, Route iv, Min): 0.00422 nM·h
AUCinf (plasma, Route iv, Min): 0.27962 nM·h
AUClast (plasma, Route iv, Min): 0.24083 nM·h
Az (plasma, Route iv, Min): 0.054 h⁻¹
Clast (plasma, Route iv, Min): 0.00267 nM
Cmax (plasma, Route iv, Min): 0.0337 nM
T ½ (plasma, Route iv, Min): 8.26 h
Tmax (plasma, Route iv, Min): 0.25 h
AUC % Extrap (plasma, Route po, Max): 16.54%
AUCTmax (plasma, Route po, Max): 0.04903 nM·h
AUCinf (plasma, Route po, Max): 0.4907 nM·h
AUClast (plasma, Route po, Max): 0.46442 nM·h
Az (plasma, Route po, Max): 0.118 h⁻¹
Clast (plasma, Route po, Max): 0.00459 nM
Cmax (plasma, Route po, Max): 0.076 nM
T ½ (plasma, Route po, Max): 11.29 h
Tmax (plasma, Route po, Max): 2.00 h
AUC % Extrap (plasma, Route po, Mean): 13.07%
AUCTmax (plasma, Route po, Mean): 0.02176 nM·h
AUCinf (plasma, Route po, Mean): 0.37884 nM·h
AUClast (plasma, Route po, Mean): 0.33063 nM·h
Az (plasma, Route po, Mean): 0.076 h⁻¹
Clast (plasma, Route po, Mean): 0.00353 nM
Cmax (plasma, Route po, Mean): 0.0507 nM
T ½ (plasma, Route po, Mean): 9.40 h
Tmax (plasma, Route po, Mean): 0.81 h
AUC % Extrap (plasma, Route po, Min): 5.36%
AUCTmax (plasma, Route po, Min): 0.01199 nM·h
AUCinf (plasma, Route po, Min): 0.31704 nM·h
AUClast (plasma, Route po, Min): 0.26699 nM·h
Az (plasma, Route po, Min): 0.061 h⁻¹
Clast (plasma, Route po, Min): 0.00286 nM
Cmax (plasma, Route po, Min): 0.0357 nM
T ½ (plasma, Route po, Min): 5.88 h
Tmax (plasma, Route po, Min): 0.50 h
Tfirst [1]: 0.25 h
Tlast [1]: 24 h
AUCTmax [2]: 0.00422 nM·h and 0.00683 nM·h and 0.00902 nM·h and 0.00647 nM·h and 0.02396 nM·h and 0.00615 nM·h and 0.00528 nM·h and 0.00813 nM·h
AUCinf [2]: 0.27962 nM·h and 0.32862 nM·h and 0.36703 nM·h and 0.32974 nM·h and 0.43166 nM·h and 0.35514 nM·h and 0.39463 nM·h and 0.40482 nM·h
AUClast [2]: 0.24083 nM·h and 0.29153 nM·h and 0.32782 nM·h and 0.29111 nM·h and 0.39184 nM·h and 0.28587 nM·h and 0.32585 nM·h and 0.32966 nM·h
Clast [2]: 0.00267 nM and 0.00304 nM and 0.00292 nM and 0.00299 nM and 0.00334 nM and 0.00375 nM and 0.00462 nM and 0.0041 nM
Cmax [2]: 0.0337 nM and 0.0546 nM and 0.0722 nM and 0.0517 nM and 0.0668 nM and 0.0492 nM and 0.0422 nM and 0.065 nM
T1/2 [2]: 10.07 h and 8.46 h and 9.31 h and 8.96 h and 8.26 h and 12.80 h and 10.32 h and 12.71 h
Tmax [2]: 0.25 h and 0.5 h
λz [2]: 0.069 h⁻¹ and 0.082 h⁻¹ and 0.075 h⁻¹ and 0.077 h⁻¹ and 0.084 h⁻¹ and 0.054 h⁻¹ and 0.067 h⁻¹ and 0.055 h⁻¹
Tlast (plasma, route po, individual subjects 1-8, period 1 or 2): 24 h
AUCTmax [3]: 0.0122 nM·h and 0.03149 nM·h and 0.01712 nM·h and 0.04903 nM·h and 0.02379 nM·h and 0.01199 nM·h and 0.01353 nM·h and 0.01489 nM·h
AUCinf [3]: 0.32094 nM·h and 0.4907 nM·h and 0.31704 nM·h and 0.41499 nM·h and 0.40394 nM·h and 0.32388 nM·h and 0.3913 nM·h and 0.36795 nM·h
AUClast [3]: 0.28221 nM·h and 0.46442 nM·h and 0.26699 nM·h and 0.34636 nM·h and 0.34963 nM·h and 0.27076 nM·h and 0.34145 nM·h and 0.32318 nM·h
Clast [3]: 0.00286 nM and 0.0031 nM and 0.00341 nM and 0.00459 nM and 0.00395 nM and 0.00326 nM and 0.00376 nM and 0.0033 nM
Cmax [3]: 0.0406 nM and 0.076 nM and 0.0357 nM and 0.0392 nM and 0.0494 nM and 0.0479 nM and 0.0581 nM and 0.0584 nM
T1/2 [3]: 9.39 h and 5.88 h and 10.18 h and 10.36 h and 9.53 h and 11.29 h and 9.19 h and 9.40 h
Tfirst [3]: 0.25 hr (7×) and 0.5 hr
Tmax [3]: 0.5 h and 0.75 h and 1 h and 2 h
λz [3]: 0.074 hr^−1 (2×) and 0.118 hr^−1 and 0.068 hr^−1 and 0.067 hr^−1 and 0.073 hr^−1 and 0.061 hr^−1 and 0.075 hr^−1
